Measured values taken from PMC10408038 (Journal of medicinal chemistry, 2022).
Blank lines part the entries; values can stand above or below the compound they belong to.

Legend:
[1] = system: NCI-H522 cells; assay: Cell viability assay; conditions: for Fold Change: ratio of IC50 (HCT-116)/ IC50 (NCI-H522); for fold increase of IC50 in the presence of Liproxstatin-1: NCI-H522, Liproxstatin-1 (0.25 μM); for IC50: cell line not given
[2] = system: NCI-H522 cells; assay: Liproxstatin-1 rescue experiments; format: cell-based; conditions: for rescue of cytotoxicity by Liproxstatin-1: compound at 2–3 times the IC50, Liproxstatin-1 0.25 μM
[3] = system: NCI-H522 cells; assay: C11-BODIPY lipid peroxidation assay; format: cell-based; conditions: 3 h or 6 h treatment
[4] = system: NCI-H522 cells; assay: In-gel fluorescence labeling competition with probe; format: cell-based; conditions: competitor 20 μM
[5] = NMR kinetic study of thiol addition; format: physicochemical; conditions: DMSO-d6
[6] = system: NCI-H522 cells; assay: Incubation time50; format: cell-based; conditions: RSL3 0.5 μM, 45 2 μM
[7] = target: T1, GPX4 (Homo sapiens, UniProt P36969); assay: Pulldown with Biotin-TAMRA and western blot analysis, GPX4; format: cell-based; conditions: NCI-H522; probe 10 μM; western blot
T1 sequence (P36969 28-197 limits assumed): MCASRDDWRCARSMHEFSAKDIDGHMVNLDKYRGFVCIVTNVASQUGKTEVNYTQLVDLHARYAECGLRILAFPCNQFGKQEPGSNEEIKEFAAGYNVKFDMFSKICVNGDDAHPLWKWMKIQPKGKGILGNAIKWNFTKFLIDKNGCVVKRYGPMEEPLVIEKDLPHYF

[8] = target: T2, GSTO1 (Homo sapiens, UniProt P78417); assay: Pulldown with Biotin-TAMRA and western blot analysis, GSTO1; format: cell-based; conditions: NCI-H522; probe 10 μM; western blot
T2 sequence (P78417 1-241): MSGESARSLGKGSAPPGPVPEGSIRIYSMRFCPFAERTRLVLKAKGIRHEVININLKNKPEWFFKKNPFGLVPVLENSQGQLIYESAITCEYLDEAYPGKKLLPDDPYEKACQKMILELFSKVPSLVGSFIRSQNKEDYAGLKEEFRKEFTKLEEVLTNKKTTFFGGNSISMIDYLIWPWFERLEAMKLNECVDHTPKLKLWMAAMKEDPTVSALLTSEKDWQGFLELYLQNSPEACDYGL

[9] = target: T3, TXRD1 (Homo sapiens, UniProt Q16881); assay: Pulldown with Biotin-TAMRA and western blot analysis, TXRD1; format: cell-based; conditions: NCI-H522; western blot
T3 sequence (Q16881 151-649 limits assumed): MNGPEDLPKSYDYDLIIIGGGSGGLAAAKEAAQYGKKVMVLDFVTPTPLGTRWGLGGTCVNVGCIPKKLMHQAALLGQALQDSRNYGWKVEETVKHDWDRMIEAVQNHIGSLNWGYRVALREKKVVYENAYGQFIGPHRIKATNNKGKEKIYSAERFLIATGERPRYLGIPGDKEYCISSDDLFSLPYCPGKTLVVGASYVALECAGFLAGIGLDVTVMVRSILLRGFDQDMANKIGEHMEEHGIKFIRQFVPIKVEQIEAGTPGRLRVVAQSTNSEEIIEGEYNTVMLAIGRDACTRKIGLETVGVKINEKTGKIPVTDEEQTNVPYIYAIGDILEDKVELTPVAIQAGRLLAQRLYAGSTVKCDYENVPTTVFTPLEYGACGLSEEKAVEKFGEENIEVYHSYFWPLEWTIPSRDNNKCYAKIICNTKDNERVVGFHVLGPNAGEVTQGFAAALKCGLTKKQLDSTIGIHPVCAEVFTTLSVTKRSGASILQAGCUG

[10] = in the presence of DABCO, N-Boc-cysteine methyl ester 10 equiv.

Compound: 2-ethynyl-N-(4-methoxyphenyl)thiazole-5-carboxamide [Compound 8]
Fold Change [1]: 12.52

Compound: 2-ethynyl-N-phenylthiazole-5-carboxamide [Compound 9]
Fold Change [1]: 7.39

Compound: C#Cc1nc(C(=O)N2CCN(C(c3ccc(Cl)cc3)c3ccc(Cl)cc3)CC2)cs1 [BCP-T.A, (4-(bis(4-chlorophenyl)methyl)piperazin-1-yl)(2-ethynylthiazol-4-yl)methanone]
rescue of cytotoxicity by Liproxstatin-1 [2]: rescues cells | fold increase of IC50 in the presence of Liproxstatin-1 [1]: approximately 500 fold | C11-Bodipy oxidation (lipid peroxide levels) versus DMSO [3]: increases lipid peroxides

Compound: C#CC1=Nc2ccccc2C(C)(C)O1 [Compound 2, 2-ethynyl-4,4-dimethyl-4H-benzo[d][1,3]oxazine, reference compound]
rescue of cytotoxicity by Liproxstatin-1 [2]: significant rescue | competition with probe (65) labeling [4]: high competition

Compound: C#Cc1nc(C(=O)OCC)cs1 [Compound 22, ethyl 2-ethynylthiazole-4-carboxylate]
cells rescued by Liproxstatin-1 ([2]; (22) 10 μM, Liproxstatin-1 0.25 μM): 100% | half-life (t1/2) of thiol addition ([5]; in the absence of DABCO): 4.43 h | half-life (t1/2) of thiol addition [5, 10]: 0.315 h

Compound: Cn1c(I)nc2ccccc21 [Compound 31, 2-iodo-1-methyl-1H-benzo[d]imidazole]
rescue of cytotoxicity by Liproxstatin-1 [2]: kill NCI-H522 cells at the same rates both in the absence and presence of Liproxstatin-1 | C11-Bodipy oxidation (lipid peroxide levels) versus DMSO [3]: indistinguishable from the corresponding DMSO treatment

Compound: C=Cc1nc2ccccc2n1C [Compound 39, 1-methyl-2-vinyl-1H-benzo[d]imidazole]
rescue of cytotoxicity by Liproxstatin-1 [2]: kill NCI-H522 cells at the same rates both in the absence and presence of Liproxstatin-1 | C11-Bodipy oxidation (lipid peroxide levels) versus DMSO [3]: marginally increase C11-Bodipy oxidation

Compound: C=Cc1nc2ccccc2[se]1 [Compound 42, 2-vinylbenzo[d][1,3]selenazole]
C11-Bodipy oxidation (lipid peroxide levels) versus DMSO [3]: marginally increase C11-Bodipy oxidation

half-life (t1/2) of thiol addition ([5]; in the absence of DABCO): > 6 h | half-life (t1/2) of thiol addition [5, 10]: < 0.083 h
Compound: C#Cc1nc2ccccc2s1 [Compound 45, 2-ethynylbenzo[d]thiazole]
incubation time after which cells cannot be rescued by washing off the drug [6]: 1 to 2 h | competition with probe (65) labeling [4]: high competition

Compound: C#CCNC1CCC(c2csc(C#C)n2)=C1C (stereo not drawn) [Compound 64, 3-(2-ethynylthiazol-4-yl)-2-methyl-N-(prop-2-yn-1-yl)cyclopent-2-en-1-amine]
rescue of cytotoxicity by Liproxstatin-1 [2]: significant rescue | C11-Bodipy oxidation (lipid peroxide levels) versus DMSO [3]: increased levels of lipid peroxides

Compound: C#CCNC(=O)c1csc(C#C)n1 [Compound 65, 2-ethynyl-N-(prop-2-yn-1-yl)thiazole-4-carboxamide]
rescue of cytotoxicity by Liproxstatin-1 [2]: significant rescue | enrichment of GPX4 in pulldown [7]: selectively enriched | enrichment of GSTO1 in pulldown [8]: selectively enriched | C11-Bodipy oxidation (lipid peroxide levels) versus DMSO [3]: increased levels of lipid peroxides

labeling of TXRD1 in pulldown [9]: has the ability to label this protein
Compound: C#CCNC(=O)c1csc(C#Cc2ccccc2)n1 [Compound 66, 2-(phenylethynyl)-N-(prop-2-yn-1-yl)thiazole-4-carboxamide]

fold increase of IC50 in the presence of Liproxstatin-1 [1]: about 800 fold
Compound: Cc1onc(C(=O)N2CCN(C(c3ccc(Cl)cc3)c3ccc(Cl)cc3)CC2)c1[N+](=O)[O-] [ML-210, (4-(bis(4-chlorophenyl)methyl)piperazin-1-yl)(5-methyl-4-nitroisoxazol-3-yl)methanone, reference compound]

Compound: COC(=O)c1ccc([C@H]2c3[nH]c4ccccc4c3CC(C(=O)OC)N2C(=O)CCl)cc1 (stereo partly drawn) [RSL3, reference compound]
incubation time after which cells cannot be rescued by washing off the drug [6]: 1 to 2 h

Compound: CCOc1ccccc1-n1c(C(C)N2CCN(C(=O)COc3ccc(Cl)cc3)CC2)nc2ccccc2c1=O (stereo not drawn) [erastin]
competition with probe (65) labeling [4]: no competition was observed

IC50 ([1]; scheme 5 analogs): > 1000 nM
Compound: (4-ethylpiperazin-1-yl)(2-ethynylthiazol-5-yl)methanone [Compound 75]

IC50 ([1]; scheme 5D): 6 nM
Compound: (E)-1-(4-(bis(4-chlorophenyl)methyl)piperazin-1-yl)-3-(2-ethynylthiazol-5-yl)prop-2-en-1-one [Compound 78]

Compound: (E)-N-(4-chlorophenyl)-3-(2-ethynylthiazol-5-yl)acrylamide [Compound 16]
Fold Change [1]: 62.64

Compound: N-(4-chlorophenyl)-2-ethynylthiazole-5-carboxamide [Compound 10]
Fold Change [1]: 29.40
